Data from article PMC2865235 (Journal of pharmaceutical and biomedical analysis, 2010).
Where two headings read alike, the source gives them in different places.

Columns and labels:
ABCG2 = conditions: cited from earlier work
MCF-7 cells = conditions: read-out: 72 h IC50, ref [2]; cited from earlier work
P388 cells = conditions: read-out: 72 h IC50, ref [2]; cited from earlier work
ABCB1 = conditions: cited from earlier work
[1] = human, 4 h
cell cycle = conditions: in vitro; ref [2]; cited from earlier work
[2] = system: Topo I cleavage complexes; conditions: drug 1 μM, compared with CPT or SN-38; ref [2]; cited from earlier work
HCT-116 cells = conditions: read-out: 72 h IC50, ref [2]; cited from earlier work

SMILES | Substrate for the efflux pump ABCG2 (ABCG2; ref [2]) | IC50 (MCF-7 cells) [nM] | Protein binding in human plasma [%] | IC50 (P388 cells) [nM] | Substrate for ABCB1 (ABCB1) | Stability in plasma at room temperature [1] [%] | Substrate for the efflux pump ABCG2 (ABCG2; not told) | Cell cycle arrest (cell cycle) | Persistence of Topo I cleavage complexes after removal of drug [2] | IC50 (HCT-116 cells) [nM]
CC[C@@]1(O)C(=O)OCc2c1cc1n(c2=O)Cc2cc3c(CN(C)C)c(O)ccc3nc2-1 [topotecan] | good substrates |  |  |  |  |  |  |  |  | 
CCc1c2c(nc3ccc(O)cc13)-c1cc3c(c(=O)n1C2)COC(=O)[C@]3(O)CC [SN-38] | good substrates |  |  |  |  |  |  |  |  | 
COc1cc2c3c(n(CCCn4ccnc4)c(=O)c2cc1OC)-c1cc2c(cc1C3=O)OCO2 [NSC 725776] |  | 90 | > 98 | < 30 | moderate substrate | > 94.3 | moderate substrate | cell cycle arrest in both S and G(2)-M | persisted longer | 130
COc1cc2c3c(n(CCCN4CCOCC4)c(=O)c2cc1OC)-c1cc2c(cc1C3=O)OCO2 [NSC 724998] |  |  |  |  | not a substrate |  | not a substrate |  |  | 
COc1cc2c3c(n(CCCN4CCOCC4)c(=O)c2cc1OC)-c1cc2c(cc1C3=O)OCO2.Cl [NSC 743400] |  | 560 | > 98 | 300 |  | > 94.3 |  | cell cycle arrest in both S and G(2)-M | persisted longer | 1200
CC[C@@]1(O)C(=O)OCc2c1cc1n(c2=O)Cc2cc3ccccc3nc2-1 [Camptothecin, camptothecin] | good substrates |  |  |  |  |  |  |  |  | 
